From patent US6680313B2, “Carbapenum derivatives” (Meiji Seika Kaisha, Ltd., priority 2000, dated 2004)
≈ marks a conversion by molar mass, not a printed value.

How the values were obtained:
[1] = test system: H. influenzae PRC 2; experiment: Antimicrobial activities (MIC, agar dilution); assay type: cell-based; conditions: Haemophilus influenzae, PRC2, Sensitivity Disk agar-N+5% Horse blood, 10^6 CFU/ml, read-out: minimum inhibiting concentrations (MIC)
Procedure: (§1) The minimum inhibiting concentrations (MIC, μg/ml) of representative compounds, among the novel carbapenem derivatives of the present invention, to various pathogenic bacteria were measured in accordance with the method described in CHEMOTHERAPY, vol. 16, No. 1, 99, 1968. The culture medium for the measurement is Sensitivity Disk agar-N+5% Horse blood, and the amount of inoculants used is 10^6 CFU/ml.

[2] = test system: E. faecalis W-73; experiment: Antimicrobial activities (MIC, agar dilution); assay type: cell-based; conditions: Enterococcus faecalis, W73, Sensitivity Disk agar-N+5% Horse blood, 10^6 CFU/ml, read-out: minimum inhibiting concentrations (MIC)
Procedure: as §1

[3] = test system: P. vulgaris GN 7919; experiment: Antimicrobial activities (MIC, agar dilution); assay type: cell-based; conditions: Proteus vulgaris, GN7919, Sensitivity Disk agar-N+5% Horse blood, 10^6 CFU/ml, read-out: minimum inhibiting concentrations (MIC)
Procedure: as §1

[4] = test system: S. pneumoniae PRC 9; experiment: Antimicrobial activities (MIC, agar dilution); assay type: cell-based; conditions: Streptococcus pneumoniae, PRC9; S. pneumoniae PRC 9, Penicillin-hyperresistant strain; Sensitivity Disk agar-N+5% Horse blood; 10^6 CFU/ml; read-out: minimum inhibiting concentrations (MIC)
Procedure: as §1

[5] = test system: S. aureus 209P JC-1; experiment: Antimicrobial activities (MIC, agar dilution); assay type: cell-based; conditions: Staphylococcus aureus, Sensitivity Disk agar-N+5% Horse blood, 10^6 CFU/ml, read-out: minimum inhibiting concentrations (MIC)
Procedure: as §1

[6] = test system: S. aureus M 126; experiment: Antimicrobial activities (MIC, agar dilution); assay type: cell-based; conditions: Staphylococcus aureus, M126; S. aureus M 126, Methicillin-hyperresistant strain; Sensitivity Disk agar-N+5% Horse blood; 10^6 CFU/ml; read-out: minimum inhibiting concentrations (MIC)
Procedure: as §1

[7] = test system: B. catarrhalis W-0500; experiment: Antimicrobial activities (MIC, agar dilution); assay type: cell-based; conditions: Moraxella catarrhalis, W0500, Sensitivity Disk agar-N+5% Horse blood, 10^6 CFU/ml, read-out: minimum inhibiting concentrations (MIC)
Procedure: as §1

[8] = test system: E. hirae ATCC 8043; experiment: Antimicrobial activities (MIC, agar dilution); assay type: cell-based; conditions: Enterococcus hirae, ATCC8043, Sensitivity Disk agar-N+5% Horse blood, 10^6 CFU/ml, read-out: minimum inhibiting concentrations (MIC)
Procedure: as §1

[9] = test system: E. coli NIHJ JC-2; experiment: Antimicrobial activities (MIC, agar dilution); assay type: cell-based; conditions: Escherichia coli, NIHJJC2, Sensitivity Disk agar-N+5% Horse blood, 10^6 CFU/ml, read-out: minimum inhibiting concentrations (MIC)
Procedure: as §1

[10] = test system: C. freundii GN 346; experiment: Antimicrobial activities (MIC, agar dilution); assay type: cell-based; conditions: Citrobacter freundii, GN346, Sensitivity Disk agar-N+5% Horse blood, 10^6 CFU/ml, read-out: minimum inhibiting concentrations (MIC)
Procedure: as §1

[11] = test system: K. pneumoniae PC 1602; experiment: Antimicrobial activities (MIC, agar dilution); assay type: cell-based; conditions: Klebsiella pneumoniae, PC1602, Sensitivity Disk agar-N+5% Horse blood, 10^6 CFU/ml, read-out: minimum inhibiting concentrations (MIC)
Procedure: as §1

[12] = test system: S. epidermidis ATCC 14990; experiment: Antimicrobial activities (MIC, agar dilution); assay type: cell-based; conditions: Staphylococcus epidermidis, ATCC14990, Sensitivity Disk agar-N+5% Horse blood, 10^6 CFU/ml, read-out: minimum inhibiting concentrations (MIC)
Procedure: as §1

[13] = test system: H. influenzae PRC 44; experiment: Antimicrobial activities (MIC, agar dilution); assay type: cell-based; conditions: Haemophilus influenzae, PRC44, Sensitivity Disk agar-N+5% Horse blood, 10^6 CFU/ml, read-out: minimum inhibiting concentrations (MIC)
Procedure: as §1

[14] = test system: mice (ICR, male); experiment: Acute toxicity test; assay type: in vivo; conditions: intravenous, 2000 mg/kg, three mice
Procedure: The compound of Example 5 according to the present invention was intraveneously administered at a dose of 2000 mg/kg to mice (ICR, male) (one group consisting of three mice).

| SMILES | MIC [1] [µg/mL] | MIC [2] [µg/mL] | MIC [3] [µg/mL] | MIC [4] [µg/mL] | MIC [5] [µg/mL] | MIC [6] [µg/mL] | MIC [7] [µg/mL] | MIC [8] [µg/mL] | MIC [9] [µg/mL] | MIC [10] [µg/mL] | MIC [11] [µg/mL] | MIC [12] [µg/mL] | MIC [13] [µg/mL] | acute toxicity: survival [14] |
| --- | --- | --- | --- | --- | --- | --- | --- | --- | --- | --- | --- | --- | --- | --- |
| C[C@@H](O)[C@H]1C(=O)N2C(C(=O)O)=C(SCCN=CN)C[C@H]12 [Compound A, Imipenem, reference compound] | 0.78 (≈ 2.61 µM) | 0.78 (≈ 2.61 µM) | 0.1 (≈ 0.334 µM) | 0.2 (≈ 0.668 µM) | < 0.025 | 25 (≈ 83.5 µM) | 0.05 (≈ 0.167 µM) | 0.78 (≈ 2.61 µM) | 0.1 (≈ 0.334 µM) | 0.2 (≈ 0.668 µM) | 0.2 (≈ 0.668 µM) | < 0.025 | 12.5 (≈ 41.8 µM) | – |
| C[C@@H](O)[C@H]1C(=O)N2C(C(=O)[O-])=C(c3cn4cnc(SCCN)c4s3)[C@H](C)[C@H]12.[Na+] [Example 5, Sodium (1S,5R,6S)-2-[7-(2-aminoethyl)thioimidazo[5,1-b]thiazol-2-yl]-6-((1R)-1-hydroxyethyl)-1-methyl-1-carbapen-2-em-3-carboxylate] | 0.05 | 0.2 | 0.2 | 0.05 | < 0.025 | 1.56 | 0.05 | 0.39 | 0.1 | 1.56 | 0.1 | < 0.025 | 0.2 | all the mice survived |
| C[C@@H](O)[C@H]1C(=O)N2C(C(=O)[O-])=C(c3cn4cnc(SCCNC(=N)N)c4s3)[C@H](C)[C@H]12.[Na+] [Example 20, Sodium (1S,5R,6S)-2-[7-(2-guanidinoethyl)thioimidazo[5,1-b]thiazol-2-yl]-6-((1R)-1-hydroxyethyl)-1-methyl-1-carbapen-2-em-3-carboxylate] | 0.05 | 0.2 | 0.39 | 0.05 | < 0.025 | 0.78 | 0.05 | 0.2 | 0.2 | 1.56 | 0.39 | < 0.025 | 0.1 | – |

Stronger by MIC [1], values ahead:

| MIC [1] [µg/mL] | MIC [2] [µg/mL] | MIC [3] [µg/mL] | MIC [4] [µg/mL] | MIC [5] [µg/mL] | MIC [6] [µg/mL] | MIC [7] [µg/mL] | MIC [8] [µg/mL] | MIC [9] [µg/mL] | MIC [10] [µg/mL] | MIC [11] [µg/mL] | MIC [12] [µg/mL] | MIC [13] [µg/mL] | SMILES | acute toxicity: survival [14] |
| --- | --- | --- | --- | --- | --- | --- | --- | --- | --- | --- | --- | --- | --- | --- |
| < 0.025 | 0.39 | 0.1 | 0.2 | < 0.025 | 6.25 | 0.1 | 0.39 | 0.2 | 1.56 | 0.1 | < 0.025 | 0.2 | C[C@@H](O)[C@H]1C(=O)N2C(C(=O)[O-])=C(c3cn4cncc4s3)[C@H](C)[C@H]12.[Na+] [Compound B, Sodium (1S,5R,6S)-6-((1R)-1-hydroxyethyl)-2-(imidazo[5,1-b]thiazol-2-yl)-1-methyl-1-carbapen-2-em-3-carboxylate, reference compound] | – |
| < 0.025 | 0.2 | 0.78 | 0.05 | < 0.025 | 0.78 | 0.1 | 0.2 | 1.56 | – | 1.56 | < 0.025 | 0.025 | C[C@@H](O)[C@H]1C(=O)N2C(C(=O)[O-])=C(c3cn4cnc(SCCF)c4s3)[C@H](C)[C@H]12.[Na+] [Example 14, Sodium (1S,5R,6S)-2-[7-(2-fluoroethyl)thioimidazo[5,1-b]thiazol-2-yl]-6-((1R)-1-hydroxyethyl)-1-methyl-1-carbapen-2-em-3-carboxylate] | – |
